Data published in US12479843B2, “Spiro ring-containing quinazoline compounds” (WIGEN BIOMEDICINE TECHNOLOGY (SHANGHAI) CO., LTD., priority 2019, dated 2025).
Like-named read-outs stand apart in the source and are kept apart here.

Assays:
[1] = tested on: Human pancreatic cancer Mia PaCa-2 cells; test: Antitumor activity on graft tumors of human pancreatic cancer Mia PaCa-2 in nude mice; format: in vivo; settings: Mia PaCa-2 graft tumors in nude mice, 10 mg/kg intragastric, qd*21
Procedure: Human pancreatic cancer Mia PaCa-2 cells were cultured conventionally in 1640 medium containing 10% fetal bovine serum in a 37° C./5% CO2 incubator. After passage, the cells were collected when they reached the desired amount. 1×10^7 Mia PaCa-2 cells were injected into the left dorsal side of each nude mouse, and the animals were randomly grouped for administration after tumors grew to 150 mm3. The groups are as follows: 1) a solvent control group of 8 mice; and 2) compound 1 group, compound 2 group, compound 5 group, compound 31 group, compound 131 group, compound 142 group, compound 171 group, compound B group and compound C group, with 8 mice per group. Mice in the solvent control group were subjected to intragastric administration of 0.5% CMC-Na once daily; mice in compound 1 group, compound 2 group, compound 5 group, compound 31 group, compound 131 group, compound 142 group, compound 171 group, compound B group and compound C group were subjected to intragastric administration of a suspension of a compound in 0.5% CMC-Na once daily. On Tuesday and Thursday each week, tumor volumes and body weight of the mice were measured, and the nude mice were sacrificed on day 21 of administration.

[2] = Pharmacokinetic evaluation in mice; format: in vivo, male ICR mice; settings: for Vd: read-out: Vss; for F: po 10 mg/kg vs iv 2 mg/kg
Procedure: The compounds were administered by intravenous injection at a dose of 2 mg/kg and oral gavage at a dose of 10 mg/kg (0.5% CMC-Na suspension). 15 male ICR mice were selected for each group, and each mouse was subjected to blood collection at 3 discrete time points, with 3 mice per time point. The time points of sampling were as follows: before the administration, and at 5 min, 15 min, 30 min, 1 h, 3 h, 5 h, 8 h, 12 h and 24 h after the administration. 80 μL of blood was collected from the eye sockets or the hearts of the mice at each of the time points after the administration. All whole blood samples were collected in tubes containing EDTA K2 and centrifuged (1500-1600 rmp) at 4° C. for 10 min to isolate plasma, which was then stored in a refrigerator at −90 to −60° C. for sample analysis. The compound concentration in the plasma was determined by liquid chromatography-tandem mass spectrometry, and the corresponding pharmacokinetic parameters were obtained according to a plasma concentration-time curve.

pERK level in H358 cells = test: pERK and ERK protein content assay in H358 cells (ELISA); format: cell-based; settings: 24 h, pERK/ERK ratio compared with DMSO group; for inhibition at 1 µM: Homo sapiens, NCI-H358, compound 1 μM, read-out: Inhibition rate (%) of pERK level
In short: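 Percent inhibition of pERK relative to DMSO, from the ELISA pERK/ERK ratio in lysed H358 cells. Compound applied at 1 μM for 24 h after one day of growth.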

[3] = tested on: phosphorylated ERK (pERK) level in H358 cells; test: pERK level assay by western blot in H358 cells; format: cell-based; settings: overnight incubation, same concentration, FIG. 1
Procedure: H358 cells were plated on to a 24-well plate at 2×10^5 cells/well. Serially diluted compounds including AMG510, MRTX849, compound 142 and compound 171 were added. After overnight incubation, cells were lysed, and proteins were quantified and subjected to gel electrophoresis.

H358 cells = test: Antiproliferative activity against H358 cells (Cell Titer Glow, ultra-low attachment plate); format: cell-based; settings: three days after addition of compound
Procedure: 2500 H358 cells were seeded in a 96-well ultra-low attachment plate (corning, 7007). After one day of growth, a serially diluted compound (a maximum concentration of 5 μM, 5-fold dilution, a total of five doses) was added. Three days after the addition of the compound, Cell Titer Glow (Promega, G9681) was added to evaluate pellet growth, and the IC50 value was calculated.

[4] = male, ICR, mouse, plasma, iv, 2 mg/kg
[5] = male, ICR, mouse, plasma, iv, 2 mg/kg, read-out: Cmax
[6] = male, ICR, mouse, plasma, iv, 2 mg/kg, read-out: Tmax
[7] = male, ICR, mouse, plasma, po, 10 mg/kg, 0.5% CMC-Na suspension
[8] = male, ICR, mouse, plasma, po, 10 mg/kg, 0.5% CMC-Na suspension, read-out: Cmax
[9] = male, ICR, mouse, plasma, po, 10 mg/kg, 0.5% CMC-Na suspension, read-out: Tmax
[10] = Homo sapiens, NCI-H358, 72 h, 96-well ultra-low attachment plate, Cell Titer Glow
[11] = po, 10 mg/kg, 0.5% CMC-Na suspension

| SMILES | Anti-tumor effect (regression) [1] [% regression] | AUC(0-t) [2, 4] [ng·h/mL] | clearance [2, 4] [mL/min/kg] | half-life [2, 4] [h] | Cmax [2, 5] [ng/mL] | Tmax [2, 6] [h] | Vd [2, 4] [L/kg] | AUC(0-t) [2, 7] [ng·h/mL] | half-life [2, 7] [h] | Cmax [2, 8] [ng/mL] | Tmax [2, 9] [h] | F [2] [%] | inhibition at 1 µM (pERK level in H358 cells) [%] | IC50 (H358 cells; [10]) [nM] | IC50 (H358 cells; Homo sapiens, NCI-H358, 72 h) [nM] | other results |
| --- | --- | --- | --- | --- | --- | --- | --- | --- | --- | --- | --- | --- | --- | --- | --- | --- |
| C=CC(=O)N1CC2(CCN(c3nc(N4CC(N5CCC5)C4)nc4c(OCC(F)(F)F)c(-c5c(C)ccc6[nH]ncc56)c(C5CC5)cc34)CC2)C1 [Compound 142] | 35 | 52000 | 0.642 | 3.31 | 13100 | 0.083 | 0.187 | 46000 | 3.89 | 6730 | 2 | 17.7 | > 90 | < 300 | 2.5 | inhibition of the phosphorylated ERK (pERK) level in cells compared with AMG510 and MRTX849 [3]: stronger inhibition |
| C=CC(=O)N1CC2(CCN(c3nc(OC4CCN(CCOC)CC4)nc4c(OCC(F)(F)F)c(-c5c(C)ccc6[nH]ncc56)c(C5CC5)cc34)CC2)C1 [B, reference compound] | 25 | 7820 | 4.2 | 4.47 | 2880 | 0.083 | 1.01 | 10300 | 3.74 | 1300 | 2 | 26.5 | > 90 | < 300 | 4.6 | – |
| C=C(F)C(=O)N1CC2(CCN(c3nc(OC4CCN(CCOC)CC4)nc4c(OCC(F)(F)F)c(-c5c(C)ccc6[nH]ncc56)c(C5CC5)cc34)CC2)C1 [Compound 1] | 39 | – | – | – | – | – | – | – | – | – | – | 29.0 | – | – | – | Cl ([2]; iv, 2 mg/kg): 2.33 mL/min/kg; Cmax ([2]; iv, 2 mg/kg): 2557 ng/mL; Tmax ([2]; iv, 2 mg/kg): 1 h; Vss ([2]; iv, 2 mg/kg): 0.782 L/kg; t1/2 ([2]; iv, 2 mg/kg): 4.31 h; Cmax [2, 11]: 1543 ng/mL; Tmax [2, 11]: 4 h; t1/2 [2, 11]: 6.94 h; Inhibition rate (%) of pERK level (pERK level in H358 cells; compound 1 μM): +++ (+++ indicates an inhibition rate greater than 90%.); IC50 (H358 cells; 96-well ultra-low attachment plate, Cell Titer Glow): < 300 nM |
